Legend:
PD-L1 on CD34+ cells = test: 7-day culture of CD34+ cells with PGE2 and hematopoietic cytokines (STFIA medium), PD-L1+CD34+ by FACS; assay type: cell-based, human; conditions: for increase in the percentage of PD-L1+CD34+ cells: 7 days, STFIA medium, PGE2 10 μM
Description: FIGS. 18A-18J show effects of human PGE2-modulated and cytokine-treated CD34^+ cells. […] (FIG. 18C) Effect of PGE2 pulsing on CD34^+ cells cultured for 0, 24 h, 72 h and 6 days on PD-L1 expression on CD34^+ cells. (FIG. 18D-18E) Bar graphs showing an increase in the number of PD-L1^+CD34^+ cells and fold increase in cell number after 7 days of culture with PGE2 supplemented with cytokines. (FIG. 18F-18G) Upregulation of PD-L1 expression following culture with PGE2 (shown as percentage) on CD34^+ cells was not altered by the freeze/thawing process. (FIG. 18H) PGE2-modulated CD34^+ cells abrogate the IFN-γ autoimmune response to insulin-associated 2 (I-A2) autoantigen in vitro, as measured via the quantification of IFN-γ-producing cells in an Elispot assay; […]. (FIG. 18I) PGE2-modulated CD34^+ cells and PGE2-modulated CD34^+ cells cultured for 7 days in STFIA media abrogate the IFN-γ autoimmune response towards insulin-associated 2 (I-A2) autoantigen in vitro, as measured via the quantification of IFN-γ-producing cells in an Elispot assay, even when added at low dose. (FIG. 18J) PGE2-modulated CD34^+ cells abrogate the anti-CD3/CD28-stimulated PBMC response in vitro as measured via the quantification of IFN-γ-producing cells in an Elispot assay. […] Abbreviations: SCF, stem cell factor; TPO, thrombopoietin; hFGF-1, human fibroblast growth factor 1; IGFBP2, insulin-like growth factor-binding protein 2; Angptl3, angiopoietin-like 3; PBMCs, peripheral blood mononuclear cells.
Pharmacological modulation of human CD34+ cells. […] Data were analyzed using FlowJo software version 8.7.3 (Treestar, Ashland, OR). […]
PGE2 highly augments PD-L1 expression in human HSPCs when supplemented with hematopoietic cytokine. […] PD-L1+ HSPCs were then quantified by FACS analysis at different time points post-culture. […]

CD34+ cells = test: Transwell migration assay toward SDF-1; assay type: cell-based, human; conditions: SDF-1, 2 hours
Description: Migration assay. Transwell migration assays were performed on PGE2-modulated HSPCs compared to unmodulated HSPCs in the presence of 0 to 50 ng/ml SDF-1 (R&D Systems, Minneapolis, MN). In brief, cells were suspended in 0.5% BSA Phenol Red-Free RPMI and plated in the upper chambers of an HTS-Transwell-96-well permeable support plate (Corning, Acton, MA) and incubated at 37° C. in 5% CO2 for 2 hours. After 2 hours incubation, migrated cells were counted using BD TruCount (BD Biosciences) by flow cytometry.
Prostaglandin library screening. PGE2 has been described as a small molecule known to enhance the homing and engraftment of HSPCs. It was therefore sought to screen all known types of prostaglandins using the Prostaglandin Screening Library II, which contains 64 small molecules. Each small molecule contained in the library was first screened for its capacity to upregulate PD-L1 in human CD34+ cells isolated from T1D patients (FIG. 17A-17B). CD34+ cells isolated from T1D patients were cultured in StemSpan SFEMII and pulsed with each PG (prostaglandin) small molecule contained in the aforementioned library at a concentration of 10 μM at 24 and 48h. Using FACS analysis, the MFI (mean fluorescence intensity) of PD-L1 expression was calculated following treatment with each small molecule used to modulate CD34+ cells as compared to untreated/unmodulated CD34+ cells (FIG. 17B). […]

CCCCC[C@H](O)/C=C/[C@H]1[C@H](O)CC(=O)[C@@H]1C/C=C\CCCC(=O)O [PGE2, prostaglandin E2]
increase in the percentage of PD-L1+CD34+ cells (PD-L1 on CD34+ cells; HSPCs from T1D): ~5 fold
PD-L1 expression pre- and post-cryopreservation (PD-L1 on CD34+ cells; fresh vs frozen HSPCs, 7 days STFIA media pulsed with PGE2): Sustained and conserved
increase in the percentage of PD-L1+CD34+ cells (PD-L1 on CD34+ cells; healthy control patients): ~2 fold
homing potential in migration assay (CD34+ cells): substantial increase

— patent US11879137B2, “Treatment of type 1 diabetes and autoimmune diseases or disorders” (THE CHILDREN'S MEDICAL CENTER CORPORATION, priority 2017, dated 2024)
